Measurements reported in publication PMC8371902, “Phase 1 study of M2698, a p70S6K/AKT dual inhibitor, in patients with advanced cancer” (Journal of Hematology & Oncology, 2021).
Where two headings read alike, the source gives them in different places.

Tested on: patients with advanced metastatic cancer
From the text: In this phase 1 study, dose escalation was followed by expansion cohorts of once-daily, oral M2698 in continuous 21-day cycles. Primary objectives were to determine the maximum tolerated dose (MTD), dose-limiting toxicities (DLTs), and recommended phase 2 dose (RP2D). Secondary objectives were to assess safety and tolerability, pharmacokinetics (PK, including food effect) and antitumor activity. Pharmacodynamic biomarker assessments were exploratory. Treatment was discontinued if there was disease progression, toxicity or consent withdrawal.
In Part 1, M2698 monotherapy was investigated in a dose escalation with a food effect cohort. In Part 2, M2698 was investigated as monotherapy (expansion cohort) to further characterize safety, tolerability and pharmacokinetics, and assess antitumor activity in PAM + patients without confounding markers (exploratory).
Dose escalation analysis included all patients who experienced a DLT and those who received ≥ 80% of planned M2698 doses in cycle 1 without experiencing a DLT. Safety analysis included all patients who received ≥ 1 dose of M2698. PK analysis included all patients who received ≥ 1 dose of M2698 and had measurable plasma concentrations. Dose proportionality was tested using the power model (linear regression approach on the log -transformed scale).

SMILES: NC(=O)c1cccc2c(N[C@H](CN3CCC3)c3ccc(Cl)c(C(F)(F)F)c3)ncnc12 [M2698]
- M2698-related TEAE: Delusion (200 mg n=3): 0
- M2698-related TEAE: Depression (200 mg n=3): 0
- M2698-related TEAE: Diarrhoea (200 mg n=3): 0
- M2698-related TEAE: Diarrhoea haemorrhagic (200 mg n=3): 0
- M2698-related TEAE: Dizziness (200 mg n=3): 0
- M2698-related TEAE: Dry eye (200 mg n=3): 0
- M2698-related TEAE: Dry mouth (200 mg n=3): 0
- M2698-related TEAE: Dysgeusia (200 mg n=3): 0
- M2698-related TEAE: Dyspepsia (200 mg n=3): 0
- M2698-related TEAE: Dysphagia (200 mg n=3): 0
- M2698-related TEAE: Energy increased (200 mg n=3): 0
- M2698-related TEAE: Erythema (200 mg n=3): 0
- M2698-related TEAE: Euphoric mood (200 mg n=3): 0
- M2698-related TEAE: Eye disorders (200 mg n=3): 0
- M2698-related TEAE: Fatigue (200 mg n=3): 0
- M2698-related TEAE: Gamma-glutamyltransferase increased (200 mg n=3): 0
- M2698-related TEAE: Gastrointestinal disorders (200 mg n=3): 1
- M2698-related TEAE: Gastrooesophageal reflux disease (200 mg n=3): 0
- M2698-related TEAE: General disorders and administration site conditions (200 mg n=3): 0
- M2698-related TEAE: Headache (200 mg n=3): 0
- M2698-related TEAE: Hyperhidrosis (200 mg n=3): 0
- M2698-related TEAE: Hypokalaemia (200 mg n=3): 0
- M2698-related TEAE: Hypomagnesaemia (200 mg n=3): 0
- M2698-related TEAE: Insomnia (200 mg n=3): 0
- M2698-related TEAE: Investigations (200 mg n=3): 0
- M2698-related TEAE: Lipase increased (200 mg n=3): 0
- M2698-related TEAE: Lymphopenia (200 mg n=3): 0
- M2698-related TEAE: Metabolism and nutrition disorders (200 mg n=3): 1
- M2698-related TEAE: Mucosal inflammation (200 mg n=3): 0
- M2698-related TEAE: Nausea (200 mg n=3): 1
- M2698-related TEAE: Nervous system disorders (200 mg n=3): 0
- M2698-related TEAE: Nightmare (200 mg n=3): 0
- M2698-related TEAE: Onychomadesis (200 mg n=3): 0
- M2698-related TEAE: Paranoia (200 mg n=3): 0
- M2698-related TEAE: Photosensitivity reaction (200 mg n=3): 0
- M2698-related TEAE: Posterior reversible encephalopathy syndrome (200 mg n=3): 0
- M2698-related TEAE: Pruritus generalised (200 mg n=3): 0
- M2698-related TEAE: Psychiatric disorders (200 mg n=3): 0
- M2698-related TEAE: Rash (200 mg n=3): 0
- M2698-related TEAE: Rash maculo-papular (200 mg n=3): 0
- M2698-related TEAE: Skin and subcutaneous tissue disorders (200 mg n=3): 0
- M2698-related TEAE: Subjects with at least one event (200 mg n=3): 1
- M2698-related TEAE: Transaminases increased (200 mg n=3): 0
- M2698-related TEAE: Tremor (200 mg n=3): 0
- M2698-related TEAE: Vision blurred (200 mg n=3): 0
- M2698-related TEAE: Vomiting (200 mg n=3): 0
- M2698-related TEAE: White blood cell count decreased (200 mg n=3): 0
- M2698-related TEAE: Abnormal dreams (240 mg n=17): 2
- M2698-related TEAE: Affect lability (240 mg n=17): 0
- M2698-related TEAE: Alanine aminotransferase increased (240 mg n=17): 0
- M2698-related TEAE: Amylase increased (240 mg n=17): 0
- M2698-related TEAE: Anaemia (240 mg n=17): 0
- M2698-related TEAE: Angina pectoris (240 mg n=17): 0
- M2698-related TEAE: Anxiety (240 mg n=17): 0
- M2698-related TEAE: Aphasia (240 mg n=17): 0
- M2698-related TEAE: Ataxia (240 mg n=17): 0
- M2698-related TEAE: Blood and lymphatic system disorders (240 mg n=17): 0
- M2698-related TEAE: Blood creatine phosphokinase increased (240 mg n=17): 0
- M2698-related TEAE: Blood creatinine increased (240 mg n=17): 1
- M2698-related TEAE: Cardiac disorders (240 mg n=17): 0
- M2698-related TEAE: Cognitive disorder (240 mg n=17): 1
- M2698-related TEAE: Constipation (240 mg n=17): 0
- M2698-related TEAE: Decreased appetite (240 mg n=17): 0
- M2698-related TEAE: Delusion (240 mg n=17): 0
- M2698-related TEAE: Depression (240 mg n=17): 1
- M2698-related TEAE: Diarrhoea (240 mg n=17): 2
- M2698-related TEAE: Diarrhoea haemorrhagic (240 mg n=17): 0
- M2698-related TEAE: Dizziness (240 mg n=17): 1
- M2698-related TEAE: Dry eye (240 mg n=17): 0
- M2698-related TEAE: Dry mouth (240 mg n=17): 0
- M2698-related TEAE: Dysgeusia (240 mg n=17): 0
- M2698-related TEAE: Dyspepsia (240 mg n=17): 0
- M2698-related TEAE: Dysphagia (240 mg n=17): 0
- M2698-related TEAE: Energy increased (240 mg n=17): 0
- M2698-related TEAE: Erythema (240 mg n=17): 0
- M2698-related TEAE: Euphoric mood (240 mg n=17): 0
- M2698-related TEAE: Eye disorders (240 mg n=17): 0
- M2698-related TEAE: Fatigue (240 mg n=17): 3
- M2698-related TEAE: Gamma-glutamyltransferase increased (240 mg n=17): 0
- M2698-related TEAE: Gastrointestinal disorders (240 mg n=17): 4
- M2698-related TEAE: Gastrooesophageal reflux disease (240 mg n=17): 1
- M2698-related TEAE: General disorders and administration site conditions (240 mg n=17): 3
- M2698-related TEAE: Headache (240 mg n=17): 1
- M2698-related TEAE: Hyperhidrosis (240 mg n=17): 0
- M2698-related TEAE: Hypokalaemia (240 mg n=17): 0
- M2698-related TEAE: Hypomagnesaemia (240 mg n=17): 0
- M2698-related TEAE: Insomnia (240 mg n=17): 0
- M2698-related TEAE: Investigations (240 mg n=17): 1
- M2698-related TEAE: Lipase increased (240 mg n=17): 0
- M2698-related TEAE: Lymphopenia (240 mg n=17): 0
- M2698-related TEAE: Metabolism and nutrition disorders (240 mg n=17): 0
- M2698-related TEAE: Mucosal inflammation (240 mg n=17): 0
- M2698-related TEAE: Nausea (240 mg n=17): 3
- M2698-related TEAE: Nervous system disorders (240 mg n=17): 3
- M2698-related TEAE: Nightmare (240 mg n=17): 0
- M2698-related TEAE: Onychomadesis (240 mg n=17): 0
- M2698-related TEAE: Paranoia (240 mg n=17): 0
- M2698-related TEAE: Photosensitivity reaction (240 mg n=17): 0
- M2698-related TEAE: Posterior reversible encephalopathy syndrome (240 mg n=17): 0
